One experiment concerns the target T1, GST-RORγ (Homo sapiens, UniProt P51449).
T1 construct: 1 μg of GST-RORγ-LBD, 5 nM of [3H]T1317 as radioligand
T1 sequence (P51449 269-508 limits assumed): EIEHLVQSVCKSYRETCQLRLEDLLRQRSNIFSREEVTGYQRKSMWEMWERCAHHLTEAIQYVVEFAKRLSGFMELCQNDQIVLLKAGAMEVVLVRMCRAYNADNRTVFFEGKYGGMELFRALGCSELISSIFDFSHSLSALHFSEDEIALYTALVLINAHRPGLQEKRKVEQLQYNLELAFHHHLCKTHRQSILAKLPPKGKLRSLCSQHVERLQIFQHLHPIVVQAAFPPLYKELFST
The experiment can be described thus: RORγ scintillation proximity (SPA) radioligand binding assay, displacement of [3H]-T0901317. To be noted: 10 μM compound; read-out: RORγ SPA % bound = % radiolabel bound. A general note: Scintillation proximity formats need no separation of bound from free tracer.

A further experiment deals with T2, RORα (Homo sapiens, UniProt P35398).
T2 construct: expressed in transfected cells; host or cells: HEK293T
T2 sequence (P35398 272-510 limits assumed): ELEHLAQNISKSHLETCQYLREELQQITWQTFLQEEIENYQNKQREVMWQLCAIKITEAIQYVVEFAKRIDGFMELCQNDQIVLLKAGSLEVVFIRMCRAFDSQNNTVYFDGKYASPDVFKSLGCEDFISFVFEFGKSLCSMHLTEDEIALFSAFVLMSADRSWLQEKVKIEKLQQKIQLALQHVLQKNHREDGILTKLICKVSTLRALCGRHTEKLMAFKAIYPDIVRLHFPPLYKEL
The experiment is described as follows: Gal4-RORα LBD / UAS luciferase cotransfection assay. In kind it is cell-based. The conditions noted are these: 10 μM.

A further experiment concerns the target T3, RORγ (Homo sapiens, UniProt P51449).
T3 construct: expressed in transfected cells; host or cells: HEK293T
T3 sequence (P51449 269-508 limits assumed): T1 sequence (P51449 269-508 limits assumed)
The experiment can be described thus: Gal4-RORγ LBD / UAS luciferase cotransfection assay. In kind it is cell-based. To be noted: 10 μM.

The test system of a further experiment is VP16. The experiment is described as follows: Gal4 DBD-VP16 / UAS luciferase control assay. In kind it is cell-based. To be noted: 10 μM.
Another experiment concerns the target T4, LXR (Homo sapiens, UniProt Q13133).
T4 sequence (Q13133 209-447 limits assumed): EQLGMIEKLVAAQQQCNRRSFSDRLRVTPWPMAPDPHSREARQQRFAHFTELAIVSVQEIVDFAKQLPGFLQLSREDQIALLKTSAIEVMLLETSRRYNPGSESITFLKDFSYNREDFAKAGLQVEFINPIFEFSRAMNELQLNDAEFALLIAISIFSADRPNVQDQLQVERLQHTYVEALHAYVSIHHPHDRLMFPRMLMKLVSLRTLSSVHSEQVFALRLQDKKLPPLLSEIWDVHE
The experiment can be described thus: Gal4-LXRα / UAS luciferase cotransfection assay. In kind it is cell-based. The conditions noted are these: 10 μM.

A further experiment concerns TH17 cells. To be noted: in vitro and in vivo; cited from earlier work.
For experiment [1] the following is noted: mouse, in vivo; cited from earlier work.
Experiment [2] concerns EL-4 cells. The experiment is described as follows: IL-17A and IL-23R mRNA in PMA/ionomycin stimulated EL-4 cells (real-time PCR). In kind it is cell-based, murine. To be noted: 5 μM pre-treatment 20 hr, PMA/ionomycin stimulation. As for the experimental part:
(§1) The treatment of EL4 with SR2211 repressed the Il17 gene expression to a greater extent as compared to digoxin. […] In order to measure the effect of SR2211 on IL-17 production, we determined the intracellular levels of IL-17 using flow cytometry. After the stimulation of EL-4 cells with PMA/ionomycin for 3 hr, the cells were treated with BD GolgiPlug™ (protein transport inhibitor) to allow intracellular accumulation of cytokines. After 2 hr, the cells were fixed and stained to analyze the IL-17 by flow cytometry.
One million EL-4 cells were seeded in each well of 6 well plate and incubated with 5 uM of digoxin or SR2211 or DMSO for 20 hrs. Cells were then stimulated with phorbol 12-myristate 13-acetate (PMA) (50 ng/ml; Sigma) and Ionomycin (1 ug/ml; Sigma) for 5 hours. Then, RNA was extracted with RNeasy midi kit using DNase I (Qiagen), then cDNA was synthesized with high capacity cDNA Reverse Transcription kits (Applied Biosystems). IL17A gene expression was normalized to the expression of GAPDH. IL17A, IL-23R and GAPDH primer sets were as follows: […]
In general terms: Quantitative PCR measures a nucleic acid by following its amplification.

Experiment [3] has as its system EL-4 cells. The experiment is described as follows: Intracellular IL-17 in PMA/ionomycin stimulated EL-4 cells (flow cytometry). In kind it is cell-based, murine. To be noted: 5 μM, compared to vehicle treated cells. As for the experimental part:
as §1
For intracellular cytokine staining, cells were stimulated with PMA (50 ng/Ml) and lonomycin (1 ug/ml) for 5 hrs. After 3 hrs of incubation, BD Golgiplug (BD Bioscience) was added and incubated for 2 hrs. Then, cells were fixed, permeabilized, and stained with PEIL17A Ab (BD Biosciences). Cell sorting was performed using LSRII (BD Biosciences). • 1. Ivanov, I I; McKenzie, B. S.; Zhou, L.; Tadokoro, C. E.; Lepelley, A.; Lafaille, J. J.; Cua, D. J.; Littman, D. R. (2006) The orphan nuclear receptor RORgammat directs the differentiation program of proinflammatory IL-17+ T helper cells. Cell 126, 1121-1133. • 2. Nakae, S.; Nambu, A.; Sudo. K.; Iwakura. Y. (2003) Suppression of immune induction of collagen-induced arthritis in IL-17-deficient mice. J Immunol 171, 6173-6177. • 3. Jetten. […]

Method for LXR: (§2) The cells were treated with either DMSO or various compounds as indicated four hours after replating. Following additional 20 hour incubation, luciferase levels were assayed by one-step addition of 20 μL BriteLite (Perkin Elmer) and read using an Envision multilabel plate reader (Perkin Elmer).
(§3) Cotransfection assays were performed as previously described in HEK293 cells (Gal4 cotransfection assay or IL-17 luciferase reporter)[8]. HEK293 and the mouse lymphoma EL4 (ATCC) cells were maintained in DMEM supplemented with 10% FBS plus antibiotics (penicillin and streptomycin; Invitrogen).
Method for RORα: as §2, §3
Method for VP16: as §2

As for `OC(c1ccc(-c2ccc(CN3CCN(Cc4cscn4)CC3)cc2)cc1)(C(F)(F)F)C(F)(F)F` [Compound 115, 1,1,1,3,3,3-Hexafluoro-2-(4′-((4-(thiazol-4-ylmethyl)piperazin-1-yl)methyl)-[1,1′-biphenyl]-4-yl)propan-2-ol], on GST-RORγ, the remaining activity at 10 µM turned out to be 75%. Also, the “RORα repression, fold change over DMSO” value at RORα is listed as 0.61 fold change over DMSO. Also, at RORγ, the “RORγ repression, fold change over DMSO” value is reported as 0.31 fold change over DMSO. Also, the “VP16 repression, fold change over DMSO” value with VP16 came to 0.69 fold change over DMSO. Also, at LXR, the “LXR activation, fold change over DMSO” value is 0.76 fold change over DMSO.

For the compound `O=C(c1cscn1)N1CCN(Cc2ccc(-c3ccc(C(O)(C(F)(F)F)C(F)(F)F)cc3)cc2)CC1` [Compound 116, (4-((4′-(1,1,1,3,3,3-Hexafluoro-2-hydroxypropan-2-yl)-[1,1′-biphenyl]-4-yl)methyl)piperazin-1-yl)(thiazol-4-yl)methanone], on GST-RORγ, the remaining activity at 10 µM turned out to be 76%. For the same compound, the “RORα repression, fold change over DMSO” value on RORα is given as 0.56 fold change over DMSO. For the same compound, the “RORγ repression, fold change over DMSO” value at RORγ was determined as 0.59 fold change over DMSO. Moreover, in the experiment on VP16, the “VP16 repression, fold change over DMSO” value was found to be 0.76 fold change over DMSO. Moreover, the “LXR activation, fold change over DMSO” value on LXR was 0.81 fold change over DMSO.

Regarding `CC(=O)Nc1nc(C)c(S(=O)(=O)Nc2ccc(C(O)(C(F)(F)F)C(F)(F)F)cc2)s1` [SR1001, N-(5-(N-(4-(1,1,1,3,3,3-hexafluoro-2-hydroxypropan-2-yl)phenyl)sulfamoyl)-4-methylthiazol-2-yl)acetamide], the “TH17 cell differentiation and function” value with TH17 cells is “effective at suppressing TH17 cell differentiation and function in vitro and in vivo”. Also, the “onset and severity of EAE” value in experiment [1] is “effective at delaying the onset and reducing the severity”.

As to `C[C@H]1O[C@@H](O[C@H]2[C@@H](O)C[C@H](O[C@H]3[C@@H](O)C[C@H](O[C@H]4CC[C@@]5(C)[C@H](CC[C@@H]6[C@@H]5C[C@@H](O)[C@]5(C)[C@@H](C7=CC(=O)OC7)CC[C@]65O)C4)O[C@@H]3C)O[C@@H]2C)C[C@H](O)[C@@H]1O` [digoxin, reference compound], in the experiment with EL-4 cells [2], the IL-17 gene expression result is “significant reduction in the IL-17 gene expression” and the “expression of IL-23 receptor (Il23r)” value is on record as “significantly inhibited”. In addition, the IL-17 intracellular staining result in the experiment on EL-4 cells [3] is reported as “significant inhibition of IL-17 intracellular staining”.

These data come from US9586928B2 (The Scripps Research Institute, priority 2011, dated 2017).
